Where a name gives a salt, the structure may show the parent alone.
Experiments:
HDAC 6 = molecular target: T1, HDAC 6 (Homo sapiens, UniProt Q9UBN7); assay: Test of HDAC activities, HDAC6 (fluorimetric); assay type: biochemical; design: purchased Calbiochem 382180; settings: samples at 0.1, 1, 10, 100, 1000 nM; 37° C. 60 minutes; fluorescence Ex 390, Em 460; read-out: HDAC inhibitory activities, HDAC6
T1 sequence (Q9UBN7 1-1215): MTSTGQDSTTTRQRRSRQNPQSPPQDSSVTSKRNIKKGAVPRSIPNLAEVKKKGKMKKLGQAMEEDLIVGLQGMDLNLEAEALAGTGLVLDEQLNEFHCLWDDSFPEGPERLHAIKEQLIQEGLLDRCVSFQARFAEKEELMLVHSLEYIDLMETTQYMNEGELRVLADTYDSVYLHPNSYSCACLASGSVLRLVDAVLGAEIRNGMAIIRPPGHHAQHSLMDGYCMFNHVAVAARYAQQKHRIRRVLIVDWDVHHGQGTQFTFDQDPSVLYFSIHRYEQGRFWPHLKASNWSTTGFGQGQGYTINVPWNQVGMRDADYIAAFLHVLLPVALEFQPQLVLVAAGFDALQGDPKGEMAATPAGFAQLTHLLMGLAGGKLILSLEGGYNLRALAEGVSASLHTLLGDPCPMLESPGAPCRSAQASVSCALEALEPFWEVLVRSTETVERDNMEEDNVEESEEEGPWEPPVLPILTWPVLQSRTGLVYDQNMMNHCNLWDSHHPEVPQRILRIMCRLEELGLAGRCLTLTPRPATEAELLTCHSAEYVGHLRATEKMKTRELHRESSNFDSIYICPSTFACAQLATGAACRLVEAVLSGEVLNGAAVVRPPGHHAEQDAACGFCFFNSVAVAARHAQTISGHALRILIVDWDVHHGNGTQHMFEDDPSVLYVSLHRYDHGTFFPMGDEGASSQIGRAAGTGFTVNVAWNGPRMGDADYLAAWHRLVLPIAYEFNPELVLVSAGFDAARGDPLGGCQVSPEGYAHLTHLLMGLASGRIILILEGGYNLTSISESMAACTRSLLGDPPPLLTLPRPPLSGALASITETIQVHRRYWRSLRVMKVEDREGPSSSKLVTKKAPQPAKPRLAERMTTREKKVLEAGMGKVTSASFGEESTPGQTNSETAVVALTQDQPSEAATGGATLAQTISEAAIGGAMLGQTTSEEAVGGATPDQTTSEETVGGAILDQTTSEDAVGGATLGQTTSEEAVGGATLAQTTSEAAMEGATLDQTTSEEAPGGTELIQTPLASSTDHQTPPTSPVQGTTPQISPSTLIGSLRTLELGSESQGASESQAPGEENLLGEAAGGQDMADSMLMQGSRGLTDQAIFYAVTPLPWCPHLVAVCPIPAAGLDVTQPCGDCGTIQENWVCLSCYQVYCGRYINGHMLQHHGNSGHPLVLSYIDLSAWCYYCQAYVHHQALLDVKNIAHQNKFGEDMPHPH
Procedure, shortened: (§1)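 HDAC1 tested at 100, 1000 and 10000 nM; recombinant human HDAC6 at 0.1, 1, 10, 100 and 1000 nM. Reaction 60 min at 37° C, then developer for 30 min at 37° C; fluorescence read at Ex 390/Em 460.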

HDAC1 = HDAC1 (Homo sapiens, UniProt Q13547); assay: Test of HDAC activities, HDAC1 Fluorimetric Drug Discovery Assay Kit; assay type: biochemical; design: purchased Enzolifesciences BML-AK511; settings: samples at 100, 1000, 10000 nM; 37° C. 60 minutes; fluorescence Ex 390, Em 460; read-out: HDAC inhibitory activities, HDAC1
Procedure, shortened: as §1

Chain of HDAC1 (Q13547 whole entry): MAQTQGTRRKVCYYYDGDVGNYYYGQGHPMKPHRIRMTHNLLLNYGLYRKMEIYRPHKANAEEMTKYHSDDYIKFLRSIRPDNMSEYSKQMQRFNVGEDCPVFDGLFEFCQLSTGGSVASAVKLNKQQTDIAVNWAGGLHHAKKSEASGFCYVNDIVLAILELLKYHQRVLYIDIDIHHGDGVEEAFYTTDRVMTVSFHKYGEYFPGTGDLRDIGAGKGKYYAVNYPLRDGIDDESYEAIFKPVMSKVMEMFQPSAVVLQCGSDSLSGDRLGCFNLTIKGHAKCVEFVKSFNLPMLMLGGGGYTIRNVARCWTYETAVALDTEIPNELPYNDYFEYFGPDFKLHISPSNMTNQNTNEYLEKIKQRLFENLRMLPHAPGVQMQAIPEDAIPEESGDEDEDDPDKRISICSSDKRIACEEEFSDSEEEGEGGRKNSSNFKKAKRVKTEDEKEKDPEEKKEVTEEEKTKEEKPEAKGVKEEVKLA

IC50 (HDAC 6) [nM]	IC50 (HDAC1) [nM]	Structure (SMILES)
7	280	CCN1CCN(C(=O)N(Cc2ccc(C(=O)NO)cc2)c2ccc(F)c(Cl)c2)CC1 [Compound 479, N-(3-chloro-4-fluorophenyl)-4-ethyl-N-(4-(hydroxycarbamoyl)benzyl)piperazine-1-carboxamide]
18	1070	O=C(NO)c1ccc(CN(C(=O)N2CCN(Cc3ccccc3)CC2)c2ccc(F)c(Cl)c2)cc1 [Compound 480, 4-benzyl-N-(3-chloro-4-fluorophenyl)-N-(4-(hydroxycarbamoyl)benzyl)piperazine-1-carboxamide]
15	2080	COc1ccccc1N1CCN(C(=O)N(Cc2ccc(C(=O)NO)cc2)c2ccc(F)c(Cl)c2)CC1 [Compound 481, N-(3-chloro-4-fluorophenyl)-N-(4-(hydroxycarbamoyl)benzyl)-4-(2-methoxyphenyl)piperazine-1-carboxamide]
1	680	O=C(NO)c1ccc(CN(C(=O)N2CCN(c3ccc(F)cc3)CC2)c2ccc(F)c(Cl)c2)cc1 [Compound 482, N-(3-chloro-4-fluorophenyl)-4-(4-fluorophenyl)-N-(4-(hydroxycarbamoyl)benzyl)piperazine-1-carboxamide]
7	840	O=C(NO)c1ccc(CN(C(=O)N2CCOCC2)c2cccc(C3CCOCC3)c2)cc1 [Compound 483, N-(4-(hydroxycarbamoyl)benzyl)-N-(3-(tetrahydro-2H-pyran-4-yl)phenyl)morpholine-4-carboxamide]
2	680	COc1cccc(N(Cc2ccc(C(=O)NO)cc2)C(=O)N2CCOCC2)c1 [Compound 484, N-(4-(hydroxycarbamoyl)benzyl)-N-(3-methyoxyphenyl)morpholine-4-carboxamide]
8	860	O=C(NO)c1ccc(CN(C(=O)N2CC(F)(F)C2)c2ccc(C(F)(F)F)cc2)cc1 [Compound 485, 3,3-difluoro-N-(4-(hydroxycarbamoyl)benzyl)-N-(4-(trifluoromethyl)phenyl)azetidine-1-carboxamide]
6	1450	O=C(NO)c1ccc(CN(C(=O)N2CCC(O)(c3ccccc3)CC2)c2ccc(C(F)(F)F)cc2)cc1 [Compound 486, 4-hydroxy-N-(4-(hydroxycarbamoyl)benzyl)-4-phenyl-N-(4-(trifluoromethyl)phenyl)piperidine-1-carboxamide]
7	178	O=C(NO)c1ccc(CN(C(=O)N2CCOCC2)c2cccc(Br)c2)c(F)c1 [Compound 487, N-(3-bromophenyl)-N-(2-fluoro-4-(hydroxycarbamoyl)benzyl)morpholine-4-carboxamide]
0.5	1170	O=C(NO)c1ccc(CN(C(=O)N2CCC(O)CC2)c2cccc(Br)c2)c(F)c1 [Compound 488, N-(3-bromophenyl)-N-(2-fluoro-4-(hydroxycarbamoyl)benzyl)-4-hydroxypiperidine-1-carboxamide]
0.5	1220	CC(C)(C)OC(=O)N1CCC(c2cccc(N(Cc3ccc(C(=O)NO)cc3)C(=O)N3CCOCC3)c2)CC1 [Compound 489, tert-butyl 4-(3-(N-(4-(hydroxycarbamoyl)benzyl)morpholine-4-carboxamido)phenyl)piperidine-1-carboxylate]
19	703	CC(=O)N1CCC(c2cccc(N(Cc3ccc(C(=O)NO)cc3)C(=O)N3CCOCC3)c2)CC1 [Compound 490, N-(3-(1-acetylpiperidin-4-yl)phenyl)-N-(4-(hydroxycarbamoyl)benzyl)morpholine-4-carboxamide]
9	3220	CS(=O)(=O)N1CCC(c2cccc(N(Cc3ccc(C(=O)NO)cc3)C(=O)N3CCOCC3)c2)CC1 [Compound 491, N-(4-(hydroxycarbamoyl)benzyl)-N-(3-(1-(methylsulfonyl)piperidin-4-yl)phenyl)morpholine-4-carboxamide]
2	1260	CC(C)NC(=O)N1CCC(c2cccc(N(Cc3ccc(C(=O)NO)cc3)C(=O)N3CCOCC3)c2)CC1 [Compound 492, N-(4-(hydroxycarbamoyl)benzyl)-N-(3-(1-(isopropylcarbamoyl)piperidin-4-yl)phenyl)morpholine-4-carboxamide]
11	883	O=C(NO)c1ccc(CN(C(=O)N2CCOCC2)c2cccc(C3CCNCC3)c2)cc1 [Compound 493, N-(4-(hydroxycarbamoyl)benzyl)-N-(3-(piperidin-4-yl)phenyl)morpholine-4-carboxamide hydrochloride]
1	692	CC(=O)N1CCN(C(=O)N(Cc2ccc(C(=O)NO)cc2)c2cccc(C(F)(F)F)c2)CC1 [Compound 494, 4-acetyl-N-(4-(hydroxycarbamoyl)benzyl)-N-(3-(trifluoromethyl)phenyl)piperazine-1-carboxamide]
11	3330	O=C(NO)c1ccc(CN(C(=O)N2CC[C@@H](F)C2)c2cccc(C(F)(F)F)c2)cc1 [Compound 495, (R)-3-fluoro-N-(4-(hydroxycarbamoyl)benzyl)-N-(3-(trifluoromethyl)phenyl)pyrrolidine-1-carboxamide]
1	1120	O=C(NO)c1ccc(CN(C(=O)N2CC[C@H](F)C2)c2cccc(C(F)(F)F)c2)cc1 [Compound 496, (S)-3-fluoro-N-(4-(hydroxycarbamoyl)benzyl)-N-(3-(trifluoromethyl)phenyl)pyrrolidine-1-carboxamide]
2	936	O=C(NO)c1ccc(CN(C(=O)N2CCC[C@@H]2CO)c2cccc(C(F)(F)F)c2)cc1 [Compound 497, (R)—N-(4-(hydroxycarbamoyl)benzyl)-2-(hydroxymethyl)-N-(3-(trifluoromethyl)phenyl)pyrrolidine-1-carboxamide]
27	4710	O=C(NO)c1ccc(CN(C(=O)N2CCC[C@H]2C(F)(F)F)c2cccc(C(F)(F)F)c2)cc1 [Compound 498, (S)—N-(4-(hydroxycarbamoyl)benzyl)-2-(trifluoromethyl)-N-(3-(trifluoromethyl)phenyl)pyrrolidine-1-carboxamide]
5	3630	O=C(NO)c1ccc(CN(C(=O)N2CCOCC2)c2cccc(CO)c2)cc1 [Compound 499, N-(4-(hydroxycarbamoyl)benzyl)-N-(3-(hydroxymethyl)phenyl)morpholine-4-carboxamide]
3	1000	O=C(NO)c1ccc(CN(C(=O)N2CCOCC2)c2cccc(CF)c2)cc1 [Compound 500, N-(3-(fluoromethyl)phenyl)-N-(4-(hydroxycarbamoyl)benzyl)morpholine-4-carboxamide]
12	636	O=C(NO)c1ccc(CN(C(=O)N2CCOCC2)c2cccc(-c3ccc4c(c3)OCO4)c2)c(F)c1 [Compound 511, N-(3-(benzo[d][1,3]dioxol-5-yl)phenyl)-N-(2-fluoro-4-(hydroxycarbamoyl)benzyl)morpholine-4-carboxamide]
14	1450	O=C(NO)c1ccc(CN(C(=O)N2CCOCC2)c2cccc(C3=CCOCC3)c2)c(F)c1 [Compound 512, N-(3-(3,6-dihydro-2H-pyran-4-yl)phenyl)-N-(2-fluoro-4-(hydroxycarbamoyl)benzyl)morpholine-4-carboxamide]
15	654	O=C(NO)c1ccc(CN(C(=O)N2CCC(O)CC2)c2cccc(-c3ccc4c(c3)OCO4)c2)c(F)c1 [Compound 513, N-(3-(benzo[d][1,3]dioxol-5-yl)phenyl)-N-(2-fluoro-4-(hydroxycarbamoyl)benzyl)-4-hydroxypiperidine-1-carboxamide]
